Read-outs that look alike come from different tables or passages of the source.
What was measured:
[1] = test system: HCC827 cells (EGFR Exon19 del, non-small cell lung cancer cells); test: Cell viability assay (WST/CCK8), HCC827 cells; format: cell-based; settings: Homo sapiens, HCC827, 72 h, HCC827 (Exon19 Del), 72 hours, read-out: IC50 (half inhibitory concentration)
How it was run: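 Plated 3 000 cells/well in complete RPMI1640 the day before dosing; controls were DMSO (negative) and EGFR TKIs (positive).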

[2] = test system: PC9 cells (EGFR Exon 19 del, non-small cell lung cancer cells); test: Cell viability assay (WST/CCK8), PC9 cells; format: cell-based; settings: Homo sapiens, PC-9, PC9 (Exon19 Del), 72 hours, read-out: IC50 (half inhibitory concentration)
Text: The cell lines with abnormal EGFR expression used are as follows: • HCC827 cells (EGFR Exon19 del, non-small cell lung cancer cells); • PC9 cells (EGFR Exon 19 del, non-small cell lung cancer cells); • PC9BracA1 (EGFR Exon 19 del+T790M, non-small cell lung cancer cells) • H1975 (EGFR Exon T790M+L858R mutation, non-small cell lung cancer cell line) • BT474 cells (HER2 positive breast cancer cells)
All of the half inhibitory concentrations (IC50) of these compounds of the present invention were determined with WST reagent from Fuyuan Biotec Company. The specific experiment procedures are as follows: Cancer cells were planted in 96-well-plate at the density of 3 000 cells per well with 100 μL RPMI1640 completed culture medium. In the next day, compounds with indicated concentrations were added to the cells, DMSO was used as the negative control and the EGFR TKIs were used to treat cells as the positive groups. After 72 hours drug treatment, cell viability was measured by using the WST reagent following the instructions.
The cells were treated with the gradient concentration of these compounds (the maximum concentration: 10 μM; 3-fold dilution ratio, 10 concentration gradients) for 72 hours and then incubated with the WST (CCK8) reagent to determine the cell viability.

[3] = Table 6, canertinib-based compounds, WST

| SMILES | IC50 ([1]; WST (CCK8)) [nM] | IC50 ([2]; WST (CCK8)) [nM] | IC50 [1, 3] [nM] | IC50 [2, 3] [nM] |
| --- | --- | --- | --- | --- |
| COc1cc2ncnc(Nc3ccc(F)c(Cl)c3)c2cc1NC(=O)/C=C/CN1CCN(C(=O)CCCCNc2cccc3c2C(=O)N(C2CCC(=O)NC2=O)C3=O)CC1 (centres unmarked) [SIAIS249048, (E)-N-(4-((3-chloro-4-fluorophenyl)amino)-7-methoxyquinazolin-6-yl)-4-(4-(5-((2-(2,6-dioxopiperidin-3-yl)-1,3-dioxoisoindolin-4-yl)amino)pentanoyl)piperazin-1-yl)but-2-enamide] | 3.2 | 10.3 | – | – |
| COc1cc2ncnc(Nc3ccc(F)c(Cl)c3)c2cc1NC(=O)/C=C/CN1CCN(C(=O)CCCCCNc2cccc3c2C(=O)N(C2CCC(=O)NC2=O)C3=O)CC1 (centres unmarked) [SIAIS249049, (E)-N-(4-((3-chloro-4-fluorophenyl)amino)-7-methoxyquinazolin-6-yl)-4-(4-(6-((2-(2,6-dioxopiperidin-3-yl)-1,3-dioxoisoindolin-4-yl)amino)hexanoyl)piperazin-1-yl)but-2-enamide] | 4.6 | 16 | – | – |
| COc1cc2ncnc(Nc3ccc(F)c(Cl)c3)c2cc1NC(=O)/C=C/CN1CCN(C(=O)CNc2cccc3c2CN(C2CCC(=O)NC2=O)C3=O)CC1 (centres unmarked) [SIAIS249056, (E)-N-(4-((3-chloro-4-fluorophenyl)amino)-7-methoxyquinazolin-6-yl)-4-(4-(2-((2-(2,6-dioxopiperidin-3-yl)-1-oxoisoindolin-4-yl)amino)acetyl)piperazin-1-yl)but-2-enamide] | 7.3 | 4 | – | – |
| COc1cc2ncnc(Nc3ccc(F)c(Cl)c3)c2cc1NC(=O)/C=C/CN1CCN(C(=O)CCCCCCNc2cccc3c2CN(C2CCC(=O)NC2=O)C3=O)CC1 (centres unmarked) [SIAIS249060, (E)-N-(4-((3-chloro-4-fluorophenyl)amino)-7-methoxyquinazolin-6-yl)-4-(4-(7-((2-(2,6-dioxopiperidin-3-yl)-1-oxoisoindolin-4-yl)amino)heptanoyl)piperazin-1-yl)but-2-enamide] | 11.5 | 16 | – | – |
| COc1cc2ncnc(Nc3ccc(F)c(Cl)c3)c2cc1NC(=O)/C=C/CN1CCN(C(=O)CCCNc2cccc3c2C(=O)N(C2CCC(=O)NC2=O)C3=O)CC1 (centres unmarked) [SIAIS249062, (E)-N-(4-((3-chloro-4-fluorophenyl)amino)-7-methoxyquinazolin-6-yl)-4-(4-(4-((2-(2,6-dioxopiperidin-3-yl)-1,3-dioxoisoindolin-4-yl)amino)butanoyl)piperazin-1-yl)but-2-enamide] | 3.7 | 10 | – | – |
| COc1cc2ncnc(Nc3ccc(F)c(Cl)c3)c2cc1NC(=O)/C=C/CN1CCC(NC(=O)CCOCCOCCNc2cccc3c2C(=O)N(C2CCC(=O)NC2=O)C3=O)CC1 (centres unmarked) [SIAIS249086, (E)-N-(4-((3-chloro-4-fluorophenyl)amino)-7-methoxyquinazolin-6-yl)-4-(4-(3-(2-(2-((2-(2,6-dioxopiperidin-3-yl)-1,3-dioxoisoindolin-4-yl)amino)ethoxy)ethoxy)propanamido)piperidin-1-yl)but-2-enamide] | 17 | 34.2 | – | – |
| C=CC(=O)Nc1cc2c(Nc3ccc(F)c(Cl)c3)ncnc2cc1OCCCN1CCN(C(=O)CCC(=O)NCCNc2cccc3c2C(=O)N(C2CCC(=O)NC2=O)C3=O)CC1 (centres unmarked) [SIAIS249100, 4-(4-(3-((6-acrylamido-4-((3-chloro-4-fluorophenyl)amino)quinazolin-7-yl)oxy)propyl)piperazin-1-yl)-N-(2-((2-(2,6-dioxopiperidin-3-yl)-1,3-dioxoisoindolin-4-yl)amino)ethyl)-4-oxobutanamide] | – | – | 41 | 88.5 |
| COc1cc2ncnc(Nc3ccc(F)c(Cl)c3)c2cc1NC(=O)/C=C/CN1CCN(C(=O)COCCOCCSc2cccc3c2CN(C2CCC(=O)NC2=O)C3=O)CC1 (centres unmarked) [SIAIS262001, (E)-N-(4-((3-chloro-4-fluorophenyl)amino)-7-methoxyquinazolin-6-yl)-4-(4-(2-(2-(2-((2-(2,6-dioxopiperidin-3-yl)-1-oxoisoindolin-4-yl)thio)ethoxy)ethoxy)acetyl)piperazin-1-yl)but-2-enamide] | 26.9 | 53 | – | – |

Now from value to compound:

| IC50 ([1]; WST (CCK8)) [nM] | IC50 ([2]; WST (CCK8)) [nM] | IC50 [1, 3] [nM] | IC50 [2, 3] [nM] | SMILES |
| --- | --- | --- | --- | --- |
| 11.5 | 7.8 | – | – | COc1cc2ncnc(Nc3ccc(F)c(Cl)c3)c2cc1NC(=O)/C=C/CN1CCN(C(=O)CCCNc2cccc3c2CN(C2CCC(=O)NC2=O)C3=O)CC1 (centres unmarked) [SIAIS249057, (E)-N-(4-((3-chloro-4-fluorophenyl)amino)-7-methoxyquinazolin-6-yl)-4-(4-(4-((2-(2,6-dioxopiperidin-3-yl)-1-oxoisoindolin-4-yl)amino)butanoyl)piperazin-1-yl)but-2-enamide] |
| 5.5 | 9.9 | – | – | COc1cc2ncnc(Nc3ccc(F)c(Cl)c3)c2cc1NC(=O)/C=C/CN1CCN(C(=O)CCCCNc2cccc3c2CN(C2CCC(=O)NC2=O)C3=O)CC1 (centres unmarked) [SIAIS249058, (E)-N-(4-((3-chloro-4-fluorophenyl)amino)-7-methoxyquinazolin-6-yl)-4-(4-(5-((2-(2,6-dioxopiperidin-3-yl)-1-oxoisoindolin-4-yl)amino)pentanoyl)piperazin-1-yl)but-2-enamide] |
| 11.1 | 1.2 | – | – | COc1cc2ncnc(Nc3ccc(F)c(Cl)c3)c2cc1NC(=O)/C=C/CN1CCN(C(=O)CCCCCNc2cccc3c2CN(C2CCC(=O)NC2=O)C3=O)CC1 (centres unmarked) [SIAIS249059, (E)-N-(4-((3-chloro-4-fluorophenyl)amino)-7-methoxyquinazolin-6-yl)-4-(4-(6-((2-(2,6-dioxopiperidin-3-yl)-1-oxoisoindolin-4-yl)amino)hexanoyl)piperazin-1-yl)but-2-enamide] |
| – | – | 70 | 58.5 | C=CC(=O)Nc1cc2c(Nc3ccc(F)c(Cl)c3)ncnc2cc1OCCCN1CCN(C(=O)CCN2CCN(CCC(=O)N[C@H](C(=O)N3C[C@H](O)C[C@H]3C(=O)NCc3ccc(-c4scnc4C)cc3)C(C)(C)C)CC2)CC1 [SIAIS249101, (2S,4R)-1-((S)-2-(3-(4-(3-(4-(3-((6-acrylamido-4-((3-chloro-4-fluorophenyl)amino)quinazolin-7-yl)oxy)propyl)piperazin-1-yl)-3-oxopropyl)piperazin-1-yl)propanamido)-3,3-dimethylbutanoyl)-4-hydroxy-N-(4-(4-methylthiazol-5-yl)benzyl)pyrrolidine-2-carboxamide] |
| 12.8 | 20.4 | – | – | COc1cc2ncnc(Nc3ccc(F)c(Cl)c3)c2cc1NC(=O)/C=C/CN1CCC(N2CCN(C(=O)CCC(=O)NCCOCCNc3cccc4c3C(=O)N(C3CCC(=O)NC3=O)C4=O)CC2)CC1 (centres unmarked) [SIAIS249103, (E)-N-(4-((3-chloro-4-fluorophenyl)amino)-7-methoxyquinazolin-6-yl)-4-(4-(4-(4-((2-(2-((2-(2,6-dioxopiperidin-3-yl)-1,3-dioxoisoindolin-4-yl)amino)ethoxy)ethyl)amino)-4-oxobutanoyl)piperazin-1-yl)piperidin-1-yl)but-2-enamide] |
| 18.2 | 37.6 | – | – | COc1cc2ncnc(Nc3ccc(F)c(Cl)c3)c2cc1NC(=O)/C=C/CN1CCC(N2CCN(C(=O)CCC(=O)NCCNc3cccc4c3C(=O)N(C3CCC(=O)NC3=O)C4=O)CC2)CC1 (centres unmarked) [SIAIS249104, (E)-N-(4-((3-chloro-4-fluorophenyl)amino)-7-methoxyquinazolin-6-yl)-4-(4-(4-(4-((2-((2-(2,6-dioxopiperidin-3-yl)-1,3-dioxoisoindolin-4-yl)amino)ethyl)amino)-4-oxobutanoyl)piperazin-1-yl)piperidin-1-yl)but-2-enamide] |
| 54.3 | 60.5 | – | – | COc1cc2ncnc(Nc3ccc(F)c(Cl)c3)c2cc1NC(=O)/C=C/CN1CCC(N2CCN(C(=O)CCN3CCN(CCC(=O)N[C@H](C(=O)N4C[C@H](O)C[C@H]4C(=O)NCc4ccc(-c5scnc5C)cc4)C(C)(C)C)CC3)CC2)CC1 [SIAIS249105, (2S,4R)-1-((S)-2-(3-(4-(3-(4-(1-((E)-4-((4-((3-chloro-4-fluorophenyl)amino)-7-methoxyquinazolin-6-yl)amino)-4-oxobut-2-en-1-yl)piperidin-4-yl)piperazin-1-yl)-3-oxopropyl)piperazin-1-yl)propanamido)-3,3-dimethylbutanoyl)-4-hydroxy-N-(4-(4-methylthiazol-5-yl)benzyl)pyrrolidine-2-carboxamide] |
| 16.2 | 50.1 | – | – | COc1cc2ncnc(Nc3ccc(F)c(Cl)c3)c2cc1NC(=O)/C=C/CN1CCC(N2CCN(C(=O)CCc3ccc(CCC(=O)N[C@H](C(=O)N4C[C@H](O)C[C@H]4C(=O)NCc4ccc(-c5scnc5C)cc4)C(C)(C)C)cc3)CC2)CC1 [SIAIS249106, (2S,4R)-1-((S)-2-(3-(4-(3-(4-(1-((E)-4-((4-((3-chloro-4-fluorophenyl)amino)-7-methoxyquinazolin-6-yl)amino)-4-oxobut-2-en-1-yl)piperidin-4-yl)piperazin-1-yl)-3-oxopropyl)phenyl)propanamido)-3,3-dimethylbutanoyl)-4-hydroxy-N-(4-(4-methylthiazol-5-yl)benzyl)pyrrolidine-2-carboxamide] |

— patent publication US12564638B2 (SHANGHAITECH UNIVERSITY, priority 2019, dated 2026)
